Test results reported in ChEMBL document CHEMBL5325418, “Studies on diketopiperazine and dipeptide analogs as opioid receptor ligands” (Eur J Med Chem, 2023).
Active and inactive are the calls of the source. The rule behind the calls is not given here.

target: Kappa-type opioid receptor (Homo sapiens, UniProt P41145); assay: Displacement of [3H]U69593 from human KOR expressed in HEK cell membranes assessed as inhibition constant incubated for 60 mins by microbeta 2 scintillation counting method; set-up: species or system Cell membrane; conditions: not given
Sequence (P41145 whole entry): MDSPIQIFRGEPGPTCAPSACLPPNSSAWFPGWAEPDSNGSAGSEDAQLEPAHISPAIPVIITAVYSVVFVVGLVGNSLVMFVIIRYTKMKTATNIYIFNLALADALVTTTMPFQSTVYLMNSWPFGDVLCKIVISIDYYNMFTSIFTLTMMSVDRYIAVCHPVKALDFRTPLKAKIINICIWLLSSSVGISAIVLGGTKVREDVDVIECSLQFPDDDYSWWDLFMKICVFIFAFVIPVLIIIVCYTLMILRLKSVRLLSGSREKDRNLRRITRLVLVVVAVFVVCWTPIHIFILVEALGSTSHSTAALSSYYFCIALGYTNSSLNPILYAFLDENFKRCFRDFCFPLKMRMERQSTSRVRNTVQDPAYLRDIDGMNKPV

| Compound | Ki |
| --- | --- |
| COC(=O)C(Cc1cccc(OC)c1I)NC(=O)CN(C)C(=O)OC(C)(C)C (centres undefined) | > 10 µM |
| COc1cc(CC2NC(=O)CN(Cc3ccccc3)C2=O)c(I)c(OC)c1 (centres undefined) | 0.51 µM |
| COC(=O)C(Cc1cccc(OC)c1I)NC(=O)CN(C)Cc1ccccc1 (centres undefined) | 0.256 µM |
| COc1cccc(CC2NC(=O)CN(C)C2=O)c1I (centres undefined) | > 10 µM |
| COc1cccc(CC2NC(=O)[C@H](CC(C)C)NC2=O)c1I (some centres undefined) | > 10 µM |
| COC(=O)C(Cc1cccc(OC)c1I)NC(=O)CN(Cc1ccccc1)C(=O)OC(C)(C)C (centres undefined) | > 10 µM |
| COc1cccc(CC2NC(=O)CN(CC=C(C)C)C2=O)c1I (centres undefined) | > 10 µM |
| COC(=O)C(Cc1cccc(OC)c1I)NC(=O)CCNCc1ccccc1 (centres undefined) | 1.23 µM |

target: Mu-type opioid receptor (Homo sapiens, UniProt P35372); assay: Displacement of [3H]DAMGO from human MOR expressed in CHO cell membranes assessed as inhibition constant incubated for 60 mins by microbeta 2 scintillation counting method; set-up: species or system Cell membrane; conditions: not given
Sequence (P35372 whole entry): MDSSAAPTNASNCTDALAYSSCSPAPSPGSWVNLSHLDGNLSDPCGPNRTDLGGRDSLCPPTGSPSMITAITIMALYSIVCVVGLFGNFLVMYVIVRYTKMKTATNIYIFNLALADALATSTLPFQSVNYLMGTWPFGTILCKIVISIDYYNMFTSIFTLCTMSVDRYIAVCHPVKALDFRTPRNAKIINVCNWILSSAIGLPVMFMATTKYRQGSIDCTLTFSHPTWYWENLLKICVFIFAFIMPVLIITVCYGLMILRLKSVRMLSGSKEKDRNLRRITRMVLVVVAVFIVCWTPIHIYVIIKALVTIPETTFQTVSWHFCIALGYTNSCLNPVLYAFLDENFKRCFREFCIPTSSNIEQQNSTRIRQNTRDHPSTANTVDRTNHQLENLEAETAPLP

| Compound | Ki |
| --- | --- |
| COC(=O)C(Cc1cccc(OC)c1I)NC(=O)CN(C)C(=O)OC(C)(C)C (centres undefined) | > 10 µM |
| COc1cc(CC2NC(=O)CN(Cc3ccccc3)C2=O)c(I)c(OC)c1 (centres undefined) | > 10 µM |
| COC(=O)C(Cc1cccc(OC)c1I)NC(=O)CN(C)Cc1ccccc1 (centres undefined) | > 10 µM |
| COc1cccc(CC2NC(=O)CN(C)C2=O)c1I (centres undefined) | > 10 µM |
| COc1cccc(CC2NC(=O)[C@H](CC(C)C)NC2=O)c1I (some centres undefined) | > 10 µM |
| COC(=O)C(Cc1cccc(OC)c1I)NC(=O)CN(Cc1ccccc1)C(=O)OC(C)(C)C (centres undefined) | > 10 µM |
| COc1cccc(CC2NC(=O)CN(CC=C(C)C)C2=O)c1I (centres undefined) | > 10 µM |
| COC(=O)C(Cc1cccc(OC)c1I)NC(=O)CCNCc1ccccc1 (centres undefined) | > 10 µM |

target: Delta-type opioid receptor (Homo sapiens, UniProt P41143); assay: Displacement of [3H]DADLE from human DOR expressed in CHO cell membranes assessed as inhibition constant incubated for 60 mins by microbeta 2 scintillation counting method; set-up: species or system Cell membrane; conditions: not given
Sequence (P41143 whole entry): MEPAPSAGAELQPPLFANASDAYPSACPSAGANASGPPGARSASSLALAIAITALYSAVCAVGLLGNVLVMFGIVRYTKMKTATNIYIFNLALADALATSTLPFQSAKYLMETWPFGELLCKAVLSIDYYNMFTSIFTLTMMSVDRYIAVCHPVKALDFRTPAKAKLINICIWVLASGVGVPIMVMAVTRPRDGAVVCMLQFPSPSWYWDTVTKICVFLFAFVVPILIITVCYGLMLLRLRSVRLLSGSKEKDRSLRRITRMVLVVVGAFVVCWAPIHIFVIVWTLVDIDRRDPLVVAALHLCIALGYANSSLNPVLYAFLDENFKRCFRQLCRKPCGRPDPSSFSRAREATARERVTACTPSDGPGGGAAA

| Compound | Ki |
| --- | --- |
| COC(=O)C(Cc1cccc(OC)c1I)NC(=O)CN(C)C(=O)OC(C)(C)C (centres undefined) | > 10 µM |
| COc1cc(CC2NC(=O)CN(Cc3ccccc3)C2=O)c(I)c(OC)c1 (centres undefined) | > 10 µM |
| COC(=O)C(Cc1cccc(OC)c1I)NC(=O)CN(C)Cc1ccccc1 (centres undefined) | > 10 µM |
| COc1cccc(CC2NC(=O)CN(C)C2=O)c1I (centres undefined) | > 10 µM |
| COc1cccc(CC2NC(=O)[C@H](CC(C)C)NC2=O)c1I (some centres undefined) | > 10 µM |
| COC(=O)C(Cc1cccc(OC)c1I)NC(=O)CN(Cc1ccccc1)C(=O)OC(C)(C)C (centres undefined) | > 10 µM |
| COc1cccc(CC2NC(=O)CN(CC=C(C)C)C2=O)c1I (centres undefined) | > 10 µM |
| COC(=O)C(Cc1cccc(OC)c1I)NC(=O)CCNCc1ccccc1 (centres undefined) | > 10 µM |

species on record: Homo sapiens; assay: Selectivity ratio of Ki for displacement of [3H]DAMGO from human MOR expressed in CHO cell membranes to Ki for displacement of [3H]U69593 from human KOR expressed in HEK cell membranes; conditions: not given

| Compound | Ratio Ki |
| --- | --- |
| COc1cc(CC2NC(=O)CN(Cc3ccccc3)C2=O)c(I)c(OC)c1 (centres undefined) | > 20 |
| COC(=O)C(Cc1cccc(OC)c1I)NC(=O)CN(C)Cc1ccccc1 (centres undefined) | > 40 |
| COC(=O)C(Cc1cccc(OC)c1I)NC(=O)CCNCc1ccccc1 (centres undefined) | > 8 |

species on record: Homo sapiens; assay: Selectivity ratio of Ki for displacement of [3H]DADLE from human DOR expressed in CHO cell membranes to Ki for displacement of [3H]U69593 from human KOR expressed in HEK cell membranes; conditions: not given

| Compound | Ratio Ki |
| --- | --- |
| COc1cc(CC2NC(=O)CN(Cc3ccccc3)C2=O)c(I)c(OC)c1 (centres undefined) | > 20 |
| COC(=O)C(Cc1cccc(OC)c1I)NC(=O)CN(C)Cc1ccccc1 (centres undefined) | > 40 |
| COC(=O)C(Cc1cccc(OC)c1I)NC(=O)CCNCc1ccccc1 (centres undefined) | > 8 |

test system: not listed separately; assay: Metabolic stability in human plasma assessed as half life at 100 uM measured upto 24 hrs by LC-MS/MS analysis; type: ADME, cell-free; conditions: not given

| Compound | half-life at 100 µM |
| --- | --- |
| COc1cc(CC2NC(=O)CN(Cc3ccccc3)C2=O)c(I)c(OC)c1 (centres undefined) | > 24 h |

test system: not listed separately; assay: Metabolic stability in Beagle dog plasma assessed as half life at 100 uM measured upto 24 hrs by LC-MS/MS analysis; type: ADME, cell-free, Canis lupus familiaris; conditions: Beagle

| Compound | half-life at 100 µM |
| --- | --- |
| COc1cc(CC2NC(=O)CN(Cc3ccccc3)C2=O)c(I)c(OC)c1 (centres undefined) | > 24 h |

test system: not listed separately; assay: Metabolic stability in Sprague-Dawley rat plasma assessed as half life at 100 uM measured upto 24 hrs by LC-MS/MS analysis; type: ADME, cell-free; conditions: not given

| Compound | half-life at 100 µM |
| --- | --- |
| COc1cc(CC2NC(=O)CN(Cc3ccccc3)C2=O)c(I)c(OC)c1 (centres undefined) | > 24 h |

test system: not listed separately; assay: Metabolic stability in CD-1 mouse plasma assessed as half life at 100 uM measured upto 24 hrs by LC-MS/MS analysis; type: ADME, cell-free; conditions: not given

| Compound | half-life at 100 µM |
| --- | --- |
| COc1cc(CC2NC(=O)CN(Cc3ccccc3)C2=O)c(I)c(OC)c1 (centres undefined) | > 24 h |

test system: not listed separately; assay: Metabolic stability in Sprague-Dawley rat liver microsomes assessed as intrinsic clearance at 100 uM measured upto 24 hrs in presence of NADPH by LC-MS/MS analysis; type: ADME, Microsome; conditions: not given

| Compound | Intrinsic clearance |
| --- | --- |
| COc1cc(CC2NC(=O)CN(Cc3ccccc3)C2=O)c(I)c(OC)c1 (centres undefined) | 390.5 µL/min/mg |

test system: not listed separately; assay: Plasma protein binding in human assessed as bound fraction at 1 uM by LC-MS/MS analysis; type: ADME, cell-free; conditions: not given

| Compound | PPB |
| --- | --- |
| COc1cc(CC2NC(=O)CN(Cc3ccccc3)C2=O)c(I)c(OC)c1 (centres undefined) | 95.95% |

test system: not listed separately; assay: Plasma protein binding in dog assessed as bound fraction at 1 uM by LC-MS/MS analysis; type: ADME, cell-free, Canis lupus familiaris; conditions: not given

| Compound | PPB |
| --- | --- |
| COc1cc(CC2NC(=O)CN(Cc3ccccc3)C2=O)c(I)c(OC)c1 (centres undefined) | 89.68% |

test system: not listed separately; assay: Plasma protein binding in rat assessed as bound fraction at 1 uM by LC-MS/MS analysis; type: ADME, cell-free; conditions: not given

| Compound | PPB |
| --- | --- |
| COc1cc(CC2NC(=O)CN(Cc3ccccc3)C2=O)c(I)c(OC)c1 (centres undefined) | 93.99% |

test system: not listed separately; assay: Plasma protein binding in mouse assessed as bound fraction at 1 uM by LC-MS/MS analysis; type: ADME, cell-free; conditions: not given

| Compound | PPB |
| --- | --- |
| COc1cc(CC2NC(=O)CN(Cc3ccccc3)C2=O)c(I)c(OC)c1 (centres undefined) | 91.69% |

test system: BEND3; assay: Apparent permeability coefficient of the compound across blood brain barrier in mouse BEND3 cells at 10 ug/ml measured upto 120 mins by LC-MS/MS analysis; type: functional, cell-based; conditions: dose 10.0 µg/ml

| Compound | Pe |
| --- | --- |
| O=C1OC2(c3ccc(O)cc3Oc3cc(O)ccc32)c2ccccc21 | 0.95 10^-3cm/min |
| COc1cc(CC2NC(=O)CN(Cc3ccccc3)C2=O)c(I)c(OC)c1 (centres undefined) | 9.68 10^-3cm/min |
| Cn1c(=O)c2c(ncn2C)n(C)c1=O | 28.1 10^-3cm/min |

test system: Rattus norvegicus; assay: Effect on emotional-affective response in spinal nerve ligation neuropathic pain rat model assessed as reduction in audible vocalizations at 3 mg/kg, ip measured at 1 hr by preamplifier based analysis; type: functional, organism-based; conditions: not given

| Compound | Activity |
| --- | --- |
| NCC1(CC(=O)O)CCCCC1 | Active |

test system: Rattus norvegicus; assay: Effect on emotional-affective response in spinal nerve ligation neuropathic pain rat model assessed as reduction in ultrasonic vocalizations at 3 mg/kg, ip measured at 1 hr by preamplifier based analysis; type: functional, organism-based; conditions: not given

| Compound | Activity |
| --- | --- |
| NCC1(CC(=O)O)CCCCC1 | Active |
